Laboratory results: patent US20250388584A1, “TPK AGONIST AND METHOD FOR TREATING NEURODEGENERATIVE DISEASES USING SAME” (SHANGHAI RAISING PHARMACEUTICAL CO., LTD., priority 2022, published 2025)

Molecular target: TPK enzyme (Homo sapiens (Human), UniProt Q9H3S4)
Test: TPK enzyme activity test
Type: biochemical
Details: for Emax: calculated with the effect of DMSO on TPK enzyme activity as 100%, read-out: Emax; for EC50: promoting effect on TPK enzyme activity

Chain of TPK enzyme (Q9H3S4 whole entry): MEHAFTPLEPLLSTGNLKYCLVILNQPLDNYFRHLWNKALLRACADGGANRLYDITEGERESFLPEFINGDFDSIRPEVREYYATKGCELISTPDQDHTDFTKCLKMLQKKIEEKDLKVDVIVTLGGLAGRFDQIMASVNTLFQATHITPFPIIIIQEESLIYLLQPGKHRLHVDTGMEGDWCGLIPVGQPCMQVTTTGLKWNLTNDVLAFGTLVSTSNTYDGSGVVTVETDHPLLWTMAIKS

SMILES	Emax	EC50
Cc1ccc2[nH]c3c(=O)n(CCC(=O)NCc4cc(C(F)(F)F)cc(C(F)(F)F)c4)cnc3c2c1 [Compound 66, N-(3,5-bis(trifluoromethyl)benzyl)-3-(8-methyl-4-oxo-4,5-dihydro-3H-pyrimido[5,4-b]indol-3-yl)propanamide]	138%	–
Cc1ccc2[nH]c3c(=O)n(CCC(=O)N4CCN(c5cccc(Cl)c5Cl)CC4)cnc3c2c1 [Compound 1, 3-(3-(4-(2,3-dichlorophenyl)piperazin-1-yl)-3-oxopropyl)-8-methyl-3,5-dihydro-4H-pyrimido[5,4-b]indol-4-one]	159%	110 nM
Cc1ccc2[nH]c3c(=O)n(CCCC(=O)N4CCN(c5cccc(Cl)c5Cl)CC4)cnc3c2c1 [Compound 15, 3-(4-(4-(2,3-dichlorophenyl)piperazin-1-yl)-4-oxobutyl)-8-methyl-3,5-dihydro-4H-pyrimido[5,4-b]indol-4-one]	145%	463 nM
Cc1ccc2[nH]c3c(=O)n(CCCN4CCN(c5cccc(C(F)(F)F)c5)CC4)cnc3c2c1 [Compound 49, 8-methyl-3-(3-(4-(3-(trifluoromethyl)phenyl)piperazin-1-yl)propyl)-3,5-dihydro-4H-pyrimido[5,4-b]indol-4-one]	136%	–
Cc1ccc2[nH]c3c(=O)n(CCC(=O)NCc4cccc(C(F)(F)F)c4)cnc3c2c1 [Compound 97]	178%	1010 nM
Cc1ccc(N2CCN(C(=O)CCn3cnc4c([nH]c5ccc(C)cc54)c3=O)CC2)c(C)c1 [Compound 31]	151%	1210 nM
Cc1ccc2[nH]c3c(=O)n(CCC(=O)N4CCN(c5cccc(C(F)(F)F)c5)CC4)cnc3c2c1 [Compound 61]	172%	1210 nM
O=C1CCc2ccc(OCCCCCCN3c4ccccc4Sc4ccc(C(F)(F)F)cc43)cc2N1 [Compound 207, 7-((6-(2-(trifluoromethyl)-10H-phenothiazin-10-yl)hexyl)oxy)-3,4-dihydroquinolin-2(1H)-one]	129%	–
Cc1ccc2[nH]c3c(=O)n(CCC(=O)N(C)CCN(C)c4cccc(C(F)(F)F)c4)cnc3c2c1 [Compound 92, N-methyl-N-(2-(methyl(3-(trifluoromethyl)phenyl)amino)ethyl)-3-(8-methyl-4-oxo-4,5-dihydro-3H-pyrimido[5,4-b]indol-3-yl)propanamide]	160%	3560 nM
O=C(CCn1cnc2c([nH]c3ccc(F)cc32)c1=O)N1CCC(Cc2ccc(F)cc2)CC1 [Compound 154, 8-fluoro-3-(3-(4-(4-fluorobenzyl)piperidin-1-yl)-3-oxopropyl)-3,5-dihydro-4H-pyrimido[5,4-b]indol-4-one]	144%	2600 nM
Cc1ccc2[nH]c3c(=O)n(CCC(=O)N4CCN(c5ccc(C(F)(F)F)cc5)CC4)cnc3c2c1 [Compound 10, 8-methyl-3-(3-oxo-3-(4-(4-(trifluoromethyl)phenyl)piperazin-1-yl)propyl)-3,5-dihydro-4H-pyrimido[5,4-b]indol-4-one]	157%	1150 nM
COc1cccc(N2CCN(C(=O)CCn3cnc4c([nH]c5ccc(C)cc54)c3=O)CC2)c1 [Compound 43]	137%	–
COc1ccc2[nH]c(=O)c3c(ccn3CCCN3CCN(c4cccc(C(F)(F)F)c4)CC3)c2c1 [Compound 210, 8-methoxy-3-(3-(4-(3-(trifluoromethyl)phenyl)piperazin-1-yl)propyl)-3,5-dihydro-4H-pyrrolo[2,3-c]quinolin-4-one]	166%	1800 nM
Cc1ccc2[nH]c3c(=O)n(CCNC(=O)Cc4cccc(C(F)(F)F)c4)cnc3c2c1 [Compound 72, N-(2-(8-methyl-4-oxo-4,5-dihydro-3H-pyrimido[5,4-b]indol-3-yl)ethyl)-2-(3-(trifluoromethyl)phenyl)acetamide]	122%	–
